This note sets out measurements from US9617226B2 (AbbVie Deutschland GmbH & Co. KG, priority 2014, dated 2017).

One may read the Ki as the dissociation constant of the complex between target and ligand, obtained from inhibition or displacement. The low end stands for tighter binding, the high end for weaker binding.

Bounds are passed on as bounds.

The target of test [1] is human vasopressin V1b receptor (Homo sapiens (Human), UniProt P47901). Kind of test: biochemical.
Test [2] concerns the target human vasopressin V1a receptor (Homo sapiens (Human), UniProt P37288). Description: Vasopressin V1a receptor binding assay. As to conditions: selectivity quotient, human V1a vs human V1b. As for the experimental part: The test substances were dissolved in a concentration of 5 mM M in DMSO. Further dilution of these DMSO solutions took place as described for V1b.
The membrane pellet was again homogenized in a High-Pressure-Homogenizer, Polytec 50K at 1500 PSI (Heinemann, Germany) and subsequently taken up in 50 mM Tris-HCl, pH 7.4, homogenized and stored in aliquots frozen in liquid nitrogen at −190° C.
The incubation buffer was: 50 mM Tris, 10 mM MgCl2, 0.1% BSA, pH 7.4.
Duplicate determinations were carried out.
After incubation (60 minutes at room temperature), the samples were processed as described for V1b.
The binding parameters were calculated by nonlinear regression in SAS.

Chain of human vasopressin V1a receptor (P37288 whole entry): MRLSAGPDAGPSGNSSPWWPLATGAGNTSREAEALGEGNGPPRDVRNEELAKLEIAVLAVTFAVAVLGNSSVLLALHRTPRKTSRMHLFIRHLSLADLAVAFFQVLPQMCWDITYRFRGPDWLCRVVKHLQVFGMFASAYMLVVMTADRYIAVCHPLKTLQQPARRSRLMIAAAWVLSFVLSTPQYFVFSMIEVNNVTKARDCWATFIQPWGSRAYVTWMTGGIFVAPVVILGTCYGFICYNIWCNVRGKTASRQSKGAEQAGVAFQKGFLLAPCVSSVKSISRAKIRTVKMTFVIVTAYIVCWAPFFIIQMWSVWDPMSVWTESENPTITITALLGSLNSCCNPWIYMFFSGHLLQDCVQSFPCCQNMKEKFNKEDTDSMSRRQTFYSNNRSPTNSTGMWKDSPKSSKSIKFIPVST
Chain of human vasopressin V1b receptor (P47901 whole entry): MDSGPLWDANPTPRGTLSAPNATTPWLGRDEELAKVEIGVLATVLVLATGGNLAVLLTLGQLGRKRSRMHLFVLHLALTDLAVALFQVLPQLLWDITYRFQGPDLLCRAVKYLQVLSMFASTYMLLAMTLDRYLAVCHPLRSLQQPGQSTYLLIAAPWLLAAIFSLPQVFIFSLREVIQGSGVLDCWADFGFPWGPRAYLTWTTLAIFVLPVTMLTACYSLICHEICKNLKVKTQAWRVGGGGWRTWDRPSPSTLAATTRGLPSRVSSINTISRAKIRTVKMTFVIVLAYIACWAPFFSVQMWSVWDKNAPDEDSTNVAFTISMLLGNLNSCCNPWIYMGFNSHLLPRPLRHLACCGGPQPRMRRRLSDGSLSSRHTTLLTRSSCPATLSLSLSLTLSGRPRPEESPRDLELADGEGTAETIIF

On to `CC1CCN(C[C@H]2C[C@@H](c3ccc4nc(-c5cccc(Cl)c5)n(CC(=O)NC(C)C)c(=O)c4c3)C2)CC1` [Example 22, cis-2-[2-(3-Chlorophenyl)-6-[3-[(4-methyl-1-piperidyl)methyl]cyclobutyl]-4-oxo-quinazolin-3-yl]-N-isopropyl-acetamide], for which, in test [1], the Ki fell in the range of 1 to 10 nM. Also, the “Ki(h-V1a)/Ki(h-V1b)” value in test [2] is reported as “+++ (>75)”.

For the compound `CC(C)NC(=O)Cn1c(-c2cccc(Cl)c2)nc2ccc([C@H]3C[C@@H](CN4CC[C@H](C)C4)C3)cc2c1=O` [Example 24, cis-2-[2-(3-Chlorophenyl)-6-[3-[[(3S)-3-methylpyrrolidin-1-yl]methyl]cyclobutyl]-4-oxo-quinazolin-3-yl]-N-isopropyl-acetamide], the Ki in test [1] is 10 to 100 nM. In addition, in test [2], the “Ki(h-V1a)/Ki(h-V1b)” value is given as “+++ (>75)”.

Regarding `CC(C)NC(=O)Cn1c(-c2cccc(Cl)c2)nc2ccc([C@H]3C[C@@H](CN4CCCOCC4)C3)cc2c1=O` [Example 25, cis-2-[2-(3-Chlorophenyl)-6-[3-(1,4-oxazepan-4-ylmethyl)cyclobutyl]-4-oxo-quinazolin-3-yl]-N-isopropyl-acetamide], the inhibition constant Ki in test [1] lay in the range of 1 to 10 nM. For the same compound, in test [2], the “Ki(h-V1a)/Ki(h-V1b)” value is “+++ (>75)”.

Turning to `CC(C)(C)NC(=O)Cn1c(-c2cccc(Cl)c2)nc2ccc([C@H]3C[C@@H](CN4CCCCC4)C3)cc2c1=O` [Example 26, cis-N-tert-Butyl-2-[2-(3-chlorophenyl)-4-oxo-6-[3-(1-piperidylmethyl)cyclobutyl]-quinazolin-3-yl]acetamide], in test [1], the Ki is under 1 nM. The “Ki(h-V1a)/Ki(h-V1b)” value in test [2] is given as “+++ (>75)”.

On to `O=C(Cn1c(-c2cccc(Cl)c2)nc2ccc([C@H]3C[C@@H](CN4CCCCC4)C3)cc2c1=O)NC1CC1` [Example 27, cis-2-[2-(3-Chlorophenyl)-4-oxo-6-[3-(1-piperidylmethyl)cyclobutyl]quinazolin-3-yl]-N-cyclopropyl-acetamide], for which the Ki in test [1] lay in the range of 10 to 100 nM. In addition, the “Ki(h-V1a)/Ki(h-V1b)” value in test [2] was “+++ (>75)”.

Take `CCCNC(=O)Cn1c(-c2cccc(Cl)c2)nc2ccc([C@H]3C[C@@H](CN4CCCCC4)C3)cc2c1=O` [Example 28, cis-2-[2-(3-Chlorophenyl)-4-oxo-6-[3-(1-piperidylmethyl)cyclobutyl]quinazolin-3-yl]-N-propyl-acetamide]: the Ki in test [1] lay within 10 to 100 nM. In addition, the “Ki(h-V1a)/Ki(h-V1b)” value in test [2] is recorded as “+++ (>75)”.

Consider `O=C(Cn1c(-c2cccc(Cl)c2)nc2ccc([C@H]3C[C@@H](CN4CCCCC4)C3)cc2c1=O)NCC1CC1` [Example 29, cis-2-[2-(3-Chlorophenyl)-4-oxo-6-[3-(1-piperidylmethyl)cyclobutyl]quinazolin-3-yl]-N-(cyclopropylmethyl)acetamide], for which the Ki in test [1] is 10 to 100 nM. The “Ki(h-V1a)/Ki(h-V1b)” value in test [2] is recorded as “+++ (>75)”.

In test [1], `CC(C)NC(=O)Cn1c(-c2cccc(Cl)c2)nc2ccc([C@H]3C[C@@H](CN4CCC(F)CC4)C3)cc2c1=O` [Example 30, cis-2-[2-(3-Chlorophenyl)-6-[3-[(4-fluoro-1-piperidyl)methyl]cyclobutyl]-4-oxo-quinazolin-3-yl]-N-isopropyl-acetamide] displayed a Ki of 1 to 10 nM. In test [2], the “Ki(h-V1a)/Ki(h-V1b)” value is recorded as “+++ (>75)”.

With `CC(C)NC(=O)Cn1c(-c2cccc(Cl)c2)nc2ccc([C@H]3C[C@@H](CN4CC5(COC5)C4)C3)cc2c1=O` [Example 31, cis-2-[2-(3-Chlorophenyl)-6-[3-(6-oxa-2-azaspiro[3.3]heptan-2-ylmethyl)cyclobutyl]-4-oxo-quinazolin-3-yl]-N-isopropyl-acetamide], the Ki in test [1] fell in the range of 1 to 10 nM. Further, the “Ki(h-V1a)/Ki(h-V1b)” value in test [2] is “+++ (>75)”.

In turn, `CC(C)NC(=O)Cn1c(-c2cccc(Cl)c2)nc2ccc([C@H]3C[C@@H](CN4CCC(O)CC4)C3)cc2c1=O` [Example 32, cis-2-[2-(3-Chlorophenyl)-6-[3-[(4-hydroxy-1-piperidyl)methyl]cyclobutyl]-4-oxo-quinazolin-3-yl]-N-isopropyl-acetamide] came in with a Ki in test [1] of 10 to 100 nM. The “Ki(h-V1a)/Ki(h-V1b)” value in test [2] is “+++ (>75)”.

Consider `CC(C)NC(=O)Cn1c(-c2cccc(Cl)c2)nc2ccc([C@H]3C[C@@H](CN4CCC[C@@H](O)C4)C3)cc2c1=O` [Example 33, cis-2-[2-(3-Chlorophenyl)-6-[3-[[(3R)-3-hydroxy-1-piperidyl]methyl]cyclobutyl]-4-oxo-quinazolin-3-yl]-N-isopropyl-acetamide], for which the Ki in test [1] is 1 to 10 nM. For the same compound, the “Ki(h-V1a)/Ki(h-V1b)” value in test [2] is listed as “+++ (>75)”.

In test [1], `CC(C)NC(=O)Cn1c(-c2cccc(Cl)c2)nc2ccc([C@H]3C[C@@H](CN4CC[C@@H](C)C4)C3)cc2c1=O` [Example 34, cis-2-[2-(3-Chlorophenyl)-6-[3-[[(3R)-3-methylpyrrolidin-1-yl]methyl]cyclobutyl]-4-oxo-quinazolin-3-yl]-N-isopropyl-acetamide] showed a Ki of 1 to 10 nM. Also, the “Ki(h-V1a)/Ki(h-V1b)” value in test [2] is given as “+++ (>75)”.

The compound `COC1CN(C[C@H]2C[C@@H](c3ccc4nc(-c5cccc(Cl)c5)n(CC(=O)NC(C)C)c(=O)c4c3)C2)C1` [Example 35, cis-2-[2-(3-Chlorophenyl)-6-[3-[(3-methoxyazetidin-1-yl)methyl]cyclobutyl]-4-oxo-quinazolin-3-yl]-N-isopropyl-acetamide] had a Ki in test [1] of 10 to 100 nM. Further, the “Ki(h-V1a)/Ki(h-V1b)” value in test [2] is “+++ (>75)”.

The compound `CC(C)NC(=O)Cn1c(-c2cccc(Cl)c2)nc2ccc([C@H]3C[C@@H](CN4CCC(C)(O)CC4)C3)cc2c1=O` [Example 36, cis-2-[2-(3-Chlorophenyl)-6-[3-[(4-hydroxy-4-methyl-1-piperidyl)methyl]cyclobutyl]-4-oxo-quinazolin-3-yl]-N-isopropyl-acetamide] showed a Ki in test [1] of 1 to 10 nM. For the same compound, the “Ki(h-V1a)/Ki(h-V1b)” value in test [2] is “+++ (>75)”.

In the case of `CC(C)NC(=O)Cn1c(-c2cccc(Cl)c2)nc2ccc([C@H]3C[C@@H](CN4CCC[C@H](O)C4)C3)cc2c1=O` [Example 37, cis-2-[2-(3-Chlorophenyl)-6-[3-[ [(3S)-3-hydroxy-1-piperidyl]methyl]cyclobutyl]-4-oxo-quinazolin-3-yl]-N-isopropyl-acetamide], in test [1], the Ki lay within 1 to 10 nM. The “Ki(h-V1a)/Ki(h-V1b)” value in test [2] was “+++ (>75)”.

In turn, `CC(C)NC(=O)Cn1c(-c2cccc(Cl)c2)nc2ccc([C@H]3C[C@@H](CN4CCC(C(F)(F)F)CC4)C3)cc2c1=O` [Example 38, cis-2-[2-(3-Chlorophenyl)-4-oxo-6-[3-[[4-(trifluoromethyl)-1-piperidyl]methyl]cyclobutyl]quinazolin-3-yl]-N-isopropyl-acetamide] came in with a Ki in test [1] of 1 to 10 nM. In addition, the “Ki(h-V1a)/Ki(h-V1b)” value in test [2] was “+++ (>75)”.

As to `CC(C)NC(=O)Cn1c(-c2cccc(Cl)c2)nc2ccc([C@H]3C[C@@H](CN4CC5(CCOCC5)C4)C3)cc2c1=O` [Example 41, cis-2-[2-(3-Chlorophenyl)-6-[3-(7-oxa-2-azaspiro[3.5]nonan-2-ylmethyl)cyclobutyl]-4-oxo-quinazolin-3-yl]-N-isopropyl-acetamide], in test [1], the Ki lay in the range of 1 to 10 nM. The “Ki(h-V1a)/Ki(h-V1b)” value in test [2] is “+++ (>75)”.

On to `CC(C)NC(=O)Cn1c(-c2cccc(Cl)c2)nc2ccc([C@H]3C[C@@H](CN4C[C@@H](C)O[C@@H](C)C4)C3)cc2c1=O` [Example 42, cis-2-[2-(3-Chlorophenyl)-6-[3-[[(2S,6R)-2,6-dimethylmorpholin-4-yl]methyl]cyclobutyl]-4-oxo-quinazolin-3-yl]-N-isopropyl-acetamide], for which the Ki in test [1] lay in the range of 1 to 10 nM. For the same compound, the “Ki(h-V1a)/Ki(h-V1b)” value in test [2] was “+++ (>75)”.
